Measurements published in PubChem BioAssay (NCI).
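Tested at 5 concentrations; 48 h exposure; 96-well plates; endpoints linearly interpolated, else capped at highest concentration. GI50: concentration for 50% inhibition of growth. TGI: concentration producing complete growth inhibition.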

Legend:
Assay in all cases: DTP human tumour cell line panel, 48 h
A549 NSCLC = system: A549 NSCLC
BT-549 breast = system: BT-549 breast
KM12 colon = system: KM12 colon
SF-295 CNS = system: SF-295 CNS
SN12C renal = system: SN12C renal
SNB-19 CNS = system: SNB-19 CNS
SNB-75 CNS = system: SNB-75 CNS
UO-31 renal = system: UO-31 renal

Structure (SMILES)	TGI (A549 NSCLC) [µM]	TGI (BT-549 breast) [µM]	TGI (KM12 colon) [µM]	TGI (SF-295 CNS) [µM]	TGI (SN12C renal) [µM]	TGI (SNB-19 CNS) [µM]	TGI (SNB-75 CNS) [µM]	TGI (UO-31 renal) [µM]	GI50 (A549 NSCLC) [µM]	GI50 (BT-549 breast) [µM]	GI50 (KM12 colon) [µM]	GI50 (SF-295 CNS) [µM]	GI50 (SN12C renal) [µM]	GI50 (SNB-19 CNS) [µM]	GI50 (SNB-75 CNS) [µM]	GI50 (UO-31 renal) [µM]
O=c1c2ccccc2nc(-c2ccc(Cl)cc2)n1O	> 100	> 100	> 100	94.1	> 100	> 100	> 100	5.79								
Cc1ccccc1NC(=O)NC(CC(N)=O)c1ccc2c(c1)nc(-c1cccc(Oc3ccc(C(C)(C)C)cc3)c1)n2CCCN1CCCCC1C (centres undefined)	14.6	26.1	5.63	9.57	11.1	4.27	6.5	31.9	5.54	13.3	2.34	4.25	4.49	1.97	2.41	16.4
Cn1c(=O)c(Cc2ccc(F)cc2F)cc2cnc(NC3CCOCC3)nc21	> 25	> 25	> 25	> 25	> 25	> 25	> 25	> 25	> 25	> 16.6	> 25	> 25	> 19.8	24.3	> 17.5	11.5
O=C(Nc1ccccc1Cl)c1ccc(NC2=C(Cl)C(=O)N(Cc3ccccc3)C2=O)cc1	> 100	> 100	> 100	> 100	73.7	> 100		> 100	60.4	43	32.7	26.6	27.8	> 100		> 100
Oc1ccc2ccccc2c1/C=N\Nc1ccccn1		> 54.9	> 100	2	> 100	> 100	10.3	1.31		3.84	1.09	0.64	1.7	1.33	1.03	0.114
COc1ccc(Cc2ccccc2C(=O)O)c2ccccc12	> 100	> 100	42.9	93	> 100	> 100	> 100	> 100								
Cn1cccc1-c1cc(-c2ccc(Br)cc2)nc(N)c1C#N	> 100	> 100	> 100	> 100	> 100	> 100	84.3	> 100	> 100	69.7	> 100	> 100	> 100	> 100	22.2	> 100
CC1=C(C)C(=O)C(C(C)C2=C(C)C(=O)C(C)=C(C)C2=O)=C(C)C1=O	> 100	> 100	> 100	> 100	> 100			85.5	51	45.1	40	15.1	56			27.6
